One may read the Dmax as the greatest extent of degradation seen. Read a high Dmax as deep degradation. One may read the DC50 as the midpoint of the concentration-degradation curve. Read a high DC50 as a less potent degrader.

In test [1] the test system is Mino cells. The test can be described thus: Antiproliferative effect, MTS cell viability assay, Mino cells. The settings on record: Homo sapiens, MINO, Mino mantle cell lymphoma cells; read-out: IC50 (anti-proliferation) Mino cells. Type of test: cell-based. The essentials: (§1)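 Readout was MTS-derived formazan absorbance (490 nm) reflecting metabolically active cells. Treatment lasted 72 h over a 0–10 μM range (0.001, 0.01, 0.1, 1, 10 μM) in JeKo-1 and Mino B-cell malignancy cells.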
(Tetrazolium dyes change colour on reduction, which living cells bring about.)

The target in test [2] is BTK (Homo sapiens, UniProt Q06187). As to the kind of experiment: Degradation of BTK protein in Namalwa cells (Western blot; DC50, Dmax). The settings on record: for DC50: BTK degradation, cell line not given. In general terms: In western blotting, separated proteins are transferred to a membrane and probed.
The test system of test [3] is JeKo-1 cells. The test can be described thus: Antiproliferative effect, MTS cell viability assay, JeKo-1 cells. Type of test: cell-based. To be noted: Homo sapiens; JeKo-1 mantle cell lymphoma cells; read-out: IC50 (anti-proliferation) JeKO-1 cells. An outline of the steps:
as §1

BTK, sequence (Q06187 whole entry): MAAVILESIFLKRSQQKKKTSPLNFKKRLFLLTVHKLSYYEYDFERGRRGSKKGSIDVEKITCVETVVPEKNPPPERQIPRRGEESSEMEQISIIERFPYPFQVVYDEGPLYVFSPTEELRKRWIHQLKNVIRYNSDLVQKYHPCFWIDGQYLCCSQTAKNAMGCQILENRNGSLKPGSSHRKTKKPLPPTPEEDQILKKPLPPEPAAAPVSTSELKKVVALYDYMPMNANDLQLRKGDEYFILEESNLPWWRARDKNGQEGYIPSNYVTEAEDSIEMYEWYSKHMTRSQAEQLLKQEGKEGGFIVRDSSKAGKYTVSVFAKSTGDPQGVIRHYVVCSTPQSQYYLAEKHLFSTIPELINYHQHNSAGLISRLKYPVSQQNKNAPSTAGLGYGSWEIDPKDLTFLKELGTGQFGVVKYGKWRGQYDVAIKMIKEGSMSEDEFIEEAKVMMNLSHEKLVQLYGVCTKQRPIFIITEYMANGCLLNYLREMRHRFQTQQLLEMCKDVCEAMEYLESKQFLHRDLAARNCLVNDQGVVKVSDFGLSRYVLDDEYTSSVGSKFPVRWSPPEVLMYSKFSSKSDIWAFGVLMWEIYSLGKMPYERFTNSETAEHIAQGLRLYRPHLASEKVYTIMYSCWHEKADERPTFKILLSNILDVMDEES

In the case of `NC(=O)c1c(-c2ccc(Oc3ccccc3)cc2)nn2c1NCCC2C1CCN(C(=O)N2CCC(CN3CCC(c4ccc5c(c4)C(=O)N(C4CCC(=O)NC4=O)C5=O)CC3)CC2)CC1` (centres unmarked) [Compound 279, 7-(1-(4-((4-(2-(2,6-dioxopiperidin-3-yl)-1,3-dioxoisoindolin-5-yl)piperidin-1-yl)methyl)piperidine-1-carbonyl)piperidin-4-yl)-2-(4-phenoxyphenyl)-4,5,6,7-tetrahydropyrazolo[1,5-a]pyrimidine-3-carboxamide], the IC50 in test [1] was in the range of 1000 to 10000 nM. In test [2], the Dmax was more than 90% and the half-maximal degradation concentration (DC50) was 10 to 50 nM. The IC50 in test [3] was in the range of 1000 to 10000 nM.

Consider `NC(=O)c1c(-c2ccc(Oc3ccccc3)cc2)nn2c1NCCC2C1CCN(C(=O)N2CCC(CN3CCC(c4ccc5c(c4)CN(C4CCC(=O)NC4=O)C5=O)CC3)CC2)CC1` (centres unmarked) [Compound 280, 7-(1-(4-((4-(2-(2,6-dioxopiperidin-3-yl)-1-oxoisoindolin-5-yl)piperidin-1-yl)methyl)piperidine-1-carbonyl)piperidin-4-yl)-2-(4-phenoxyphenyl)-4,5,6,7-tetrahydropyrazolo[1,5-a]pyrimidine-3-carboxamide], for which the IC50 in test [1] and in test [3] was 1000 to 10000 nM in each case. In addition, the Dmax in test [2] was more than 90%. This compound also gave a half-maximal degradation concentration (DC50) in test [2] of less than 10 nM.

Regarding `NC(=O)c1c(-c2ccc(Oc3ccccc3)cc2)nn2c1NCCC2C1CCN(C(=O)N2CCN(CCN3CCN(c4ccc5c(c4)C(=O)N(C4CCC(=O)NC4=O)C5=O)CC3)CC2)CC1` (centres unmarked) [Compound 281, 7-(1-(4-(2-(4-(2-(2,6-dioxopiperidin-3-yl)-1,3-dioxoisoindolin-5-yl)piperazin-1-yl)ethyl)piperazine-1-carbonyl)piperidin-4-yl)-2-(4-phenoxyphenyl)-4,5,6,7-tetrahydropyrazolo[1,5-a]pyrimidine-3-carboxamide], the IC50 in test [1] and in test [3] was 1000 to 10000 nM throughout. In test [2], this compound registered a Dmax of more than 90%. In test [2], the 50% degradation concentration (DC50) lay within 10 to 50 nM.

With `NC(=O)c1c(-c2ccc(Oc3ccccc3)cc2)nn2c1NCCC2C1CCN(C(=O)N2CCN(CCN3CCN(c4ccc5c(c4)CN(C4CCC(=O)NC4=O)C5=O)CC3)CC2)CC1` (centres unmarked) [Compound 282, 7-(1-(4-(2-(4-(2-(2,6-dioxopiperidin-3-yl)-1-oxoisoindolin-5-yl)piperazin-1-yl)ethyl)piperazine-1-carbonyl)piperidin-4-yl)-2-(4-phenoxyphenyl)-4,5,6,7-tetrahydropyrazolo[1,5-a]pyrimidine-3-carboxamide], the IC50 in test [1] is 1000 to 10000 nM; in test [3], more than 10000 nM. In addition, the Dmax in test [2] is more than 90%. Besides, the DC50 in test [2] was in the range of 10 to 50 nM.

On to `NC(=O)c1c(-c2ccc(Oc3ccccc3)cc2)nn2c1NCCC2C1CCN(C(=O)N2CCN(CCC3CCN(c4ccc5c(c4)C(=O)N(C4CCC(=O)NC4=O)C5=O)CC3)CC2)CC1` (centres unmarked) [Compound 283, 7-(1-(4-(2-(1-(2-(2,6-dioxopiperidin-3-yl)-1,3-dioxoisoindolin-5-yl)piperidin-4-yl)ethyl)piperazine-1-carbonyl)piperidin-4-yl)-2-(4-phenoxyphenyl)-4,5,6,7-tetrahydropyrazolo[1,5-a]pyrimidine-3-carboxamide], for which, in test [1], the IC50 was in the range of 1000 to 10000 nM. In test [2], this compound came in with a maximal degradation (Dmax) of more than 75% and a DC50 of 10 to 50 nM. Moreover, the IC50 in test [3] is more than 10000 nM.

Take `NC(=O)c1c(-c2ccc(Oc3ccccc3)cc2)nn2c1NCCC2C1CCN(C(=O)N2CCN(CCC3CCN(c4ccc5c(c4)CN(C4CCC(=O)NC4=O)C5=O)CC3)CC2)CC1` (centres unmarked) [Compound 284, 7-(1-(4-(2-(1-(2-(2,6-dioxopiperidin-3-yl)-1-oxoisoindolin-5-yl)piperidin-4-yl)ethyl)piperazine-1-carbonyl)piperidin-4-yl)-2-(4-phenoxyphenyl)-4,5,6,7-tetrahydropyrazolo[1,5-a]pyrimidine-3-carboxamide]: in test [1], the IC50 fell in the range of 1000 to 10000 nM. In test [2], the Dmax was more than 75% and the DC50 is 10 to 50 nM. Further, the IC50 in test [3] was in the range of 1000 to 10000 nM.

For the compound `NC(=O)c1c(-c2ccc(Oc3ccccc3)cc2)nn2c1NCCC2C1CCN(C(=O)N2CCC(CCN3CCC(c4ccc5c(c4)C(=O)N(C4CCC(=O)NC4=O)C5=O)CC3)CC2)CC1` (centres unmarked) [Compound 285, 7-(1-(4-(2-(4-(2-(2,6-dioxopiperidin-3-yl)-1,3-dioxoisoindolin-5-yl)piperidin-1-yl)ethyl)piperidine-1-carbonyl)piperidin-4-yl)-2-(4-phenoxyphenyl)-4,5,6,7-tetrahydropyrazolo[1,5-a]pyrimidine-3-carboxamide], the IC50 in test [1] was in the range of 1000 to 10000 nM. In test [2], this compound yielded a maximal degradation (Dmax) of more than 75% and a half-maximal degradation concentration (DC50) of more than 50 nM. Moreover, the IC50 in test [3] was in the range of 1000 to 10000 nM.

Take `NC(=O)c1c(-c2ccc(Oc3ccccc3)cc2)nn2c1NCCC2C1CCN(C(=O)N2CCC(CCN3CCC(c4ccc5c(c4)CN(C4CCC(=O)NC4=O)C5=O)CC3)CC2)CC1` (centres unmarked) [Compound 286, 7-(1-(4-(2-(4-(2-(2,6-dioxopiperidin-3-yl)-1-oxoisoindolin-5-yl)piperidin-1-yl)ethyl)piperidine-1-carbonyl)piperidin-4-yl)-2-(4-phenoxyphenyl)-4,5,6,7-tetrahydropyrazolo[1,5-a]pyrimidine-3-carboxamide]: the IC50 in test [1] and in test [3] was 1000 to 10000 nM each time. Besides, in test [2], the greatest degradation seen (Dmax) was more than 75%. The compound also had a DC50 in test [2] of more than 50 nM.

Consider `NC(=O)c1c(-c2ccc(Oc3ccccc3)cc2)nn2c1NCCC2C1CCN(C(=O)N2CCN(CCN3CCC(c4ccc5c(c4)C(=O)N(C4CCC(=O)NC4=O)C5=O)CC3)CC2)CC1` (centres unmarked) [Compound 287], for which the IC50 in test [1] lay within 1000 to 10000 nM. In test [2], this compound yielded a maximal degradation (Dmax) of more than 75% and a DC50 of 10 to 50 nM. The IC50 in test [3] was more than 10000 nM.

Regarding `NC(=O)c1c(-c2ccc(Oc3ccccc3)cc2)nn2c1NCCC2C1CCN(C(=O)N2CCN(CCN3CCC(c4ccc5c(c4)CN(C4CCC(=O)NC4=O)C5=O)CC3)CC2)CC1` (centres unmarked) [Compound 288, 7-(1-(4-(2-(4-(2-(2,6-dioxopiperidin-3-yl)-1-oxoisoindolin-5-yl)piperidin-1-yl)ethyl)piperazine-1-carbonyl)piperidin-4-yl)-2-(4-phenoxyphenyl)-4,5,6,7-tetrahydropyrazolo[1,5-a]pyrimidine-3-carboxamide], the IC50 in test [1] lay in the range of 1000 to 10000 nM. In test [2], the Dmax was more than 75% and the 50% degradation concentration (DC50) fell in the range of 10 to 50 nM. Further, the IC50 in test [3] was 1000 to 10000 nM.

Consider `NC(=O)c1c(-c2ccc(Oc3ccccc3)cc2)nn2c1NCC[C@H]2C1CCN(C(=O)N2CCN(CC3CCN(c4ccc5c(c4)C(=O)N(C4CCC(=O)NC4=O)C5=O)CC3)CC2)CC1` (stereo partly drawn) [Compound 289, (7S)-7-(1-(4-((1-(2-(2,6-dioxopiperidin-3-yl)-1,3-dioxoisoindolin-5-yl)piperidin-4-yl)methyl)piperazine-1-carbonyl)piperidin-4-yl)-2-(4-phenoxyphenyl)-4,5,6,7-tetrahydropyrazolo[1,5-a]pyrimidine-3-carboxamide], for which the IC50 in test [1] lay within 1000 to 10000 nM. In test [2], this compound yielded a Dmax of more than 90% and a DC50 of 10 to 50 nM. The IC50 in test [3] is less than 1000 nM.

For the origin of these results see US12139492B2 (Endotarget Inc., priority 2021, dated 2024).
